From patent US6852723B2, “Aralkyl substituted piperazine compounds” (CV Therapeutics, Inc., priority 2000, dated 2005)

Columns and labels:
[1] = test system: mitochondrial fatty acid oxidation using palmitoyl CoA as substrate; assay: Palmitoyl CoA oxidation in isolated rat heart mitochondria (14C bicarbonate trapped); format: biochemical; conditions: 15 min at 30° C.
Description: (§1) Rat heart mitochodria were isolated by the method of Nedergard and Cannon (Methods in Enzymol. 55, 3, 1979).
(§2) Palmitoyl CoA oxidation—The Palmitoyl CoA oxidation was carried out in a total volume of 100 microliters containing the following agents: 110 mM KCl, 33 mM Tris buffer at pH 8, 2 mM KPi, 2 mM MgCl2, 0.1 mM EDTA, 14.7 microM defatted BSA, 0.5 mM malic acid, 13 mM carnitine, 1 mM ADP, 52 micrograms of mitochondrial protein, and 16 microM 1-C14 palmitoyl CoA (Sp. Activity 60 mCi/mmole; 20 microCi/ml, using 5 microliters per assay). The compounds of this invention were added in a DMSO solution at the following concentrations: 100 microM, 30 microM, and 3 microM. In each assay, a DMSO control was used. After 15 min at 30° C., the enzymatic reaction was centrifuged (20,000 g for 1 min), and 70 microliters of the supernatant was added to an activated reverse phase silicic acid column (approximately 0.5 ml of silicic acid). The column was eluted with 2 ml of water, and 0.5 ml of the eluent was used for scintillation counting to determine the amount of C^14 trapped as C^14 bicarbonate ion. The data are presented as % activity of control.

[2] = test system: mitochondrial fatty acid oxidation using palmitoyl carnitine as substrate; assay: Palmitoyl carnitine oxidation in isolated rat heart mitochondria (14C bicarbonate trapped); format: biochemical; conditions: 15 min at 30° C.
Description: as §1
as §2, with “Carnitine Oxidation—The” for “CoA oxidation—The”, “carnitine” for “CoA”, “0.1mg/ml of” for “14.7 microM”, “3” for “13 mM carnitine, 1”, “43” for “16”

[3] = Metabolic stability in human liver S-9 fractions (LC/MS of parent remaining); conditions: for Liver S-9 stability factor: % parent remaining after 30 min at 37 C divided by average % ranolazine remaining (57%), 10 μM compound, 2 mg/mL S9
Description: Metabolic Stability: As a measure of metabolic stability the compounds of this invention were incubated with human liver S-9 microsomal fractions. After, 30 minutes at 37 C., the amount of parent drug remaining was determined using LC-mass spec. The response factors for each compound was determined by establishing a standard curve and using an internal standard during the analysis of the samples. […] The compounds of this invention were assayed as described in the protocol below and the percentage of parent remaining was divided by the average % of ranolazine remaining (57%) affording a metabolic stability factor.
The purpose of this experiment is to compare the percentages remaining for compounds of this invention with the percentage remaining for ranolazine after 30 minutes of incubation with human liver S9 fractions.
The following reagents were used; Potassium phosphate, 0.5M pH 74. (incubation buffer), kept at room temperature; 0.05M MgCl2 kept at 4° C.; β-Nicotinamide adenine dinucleotide phosphate, tetrasodium salt, reduced form (NADPH), 0.02M solution in water (˜16.6 mg/mL) from Sigma Lot # 79H7044 prepared on day of use.
Incubation mixtures were prepared as follows:
Combine all components with incubation buffer and re-pipette 200 μL/tube+25 μL of the compound being tested along with 25 μL of S-9.
After 5 min of pre-incubation at 37° C., at 0 and 30 min after starting the reaction, a 50 μl aliquot of the incubation mixture was removed and added to 100 μL of 9:1 acetonitrile: methanol containing the internal standard.
The mixture was centrifuged and a 100 μL aliquot of the supernatant was diluted in 1 mL of solvent C (0.1% Formic Acid in water). Then samples were analyzed for change between the ratio of compound to internal standard at time zero and 30 minutes by LC/MS (injected 10 μL).
Samples were analyzed for the starting compounds and potential metabolite/s by LC/MS using an internal standard on a Micromass platform mass spec with a Keystone Inc. BDS ODS-C18 column with a flow rate of 0.25 ml/min.

Liver S-9 stability factor [3]	SMILES	Palmitoyl CoA oxidation activity (% of DMSO control) ([1]; 100 μM compound) [%]	other results
1.0	COc1ccccc1OCC(O)CN1CCN(CC(=O)Nc2c(C)cccc2C)CC1 (racemic) [Ranolazine, (±)-N-(2,6-dimethylphenyl)-4-[2-hydroxy-3-(2-methoxyphenoxy)-propyl]-1-piperazineacetamide, reference compound]	75	Palmitoyl CoA oxidation activity (% of DMSO control) ([1]; 30 μM compound): 90%; Mitochondrial palmitoyl carnitine oxidation, % activity of DMSO control ([2]; 30 μM compound): 98%; Mitochondrial palmitoyl carnitine oxidation, % activity of DMSO control ([2]; 100 μM compound): 63%; percentage of ranolazine remaining at the 30 minute time point ([3]; human liver S-9, 30 minutes at 37 C, average of five experiments): 57%
0.71	Cc1cccc(C)c1NC(=O)CN1CCN(CC(O)CCc2c(F)cccc2F)CC1 (stereo not shown) [Compound 17, 2-{4-[4-(2,6-difluorophenyl)-2-hydroxybutyl]piperazinyl}-N-(2,6-dimethylphenyl)acetamide]	78	
0.68	Cc1cccc(C)c1NC(=O)CN1CCN(CC(O)CCc2ccccc2Cl)CC1 (stereo not shown) [Compound 18, N-(2,6-dimethylphenyl)-2-{4-[4-(2-chlorophenyl)-2-hydroxybutyl]piperazinyl}acetamide]	78	
1.49	Cc1cccc(C)c1NC(=O)C(C)(C)N1CCN(CC(O)Cc2ccc3c(c2)OCO3)CC1 (stereo not shown) [Compound 22]		
0.5	Cc1cccc(C)c1NC(=O)C(C)(C)N1CCN(CC(O)Cc2ccccc2)CC1 (stereo not shown) [Compound 23, N-(2,6-Dimethyl-phenyl)-2-[4-(2-hydroxy-3-phenyl-propyl)-piperazin-1-yl]-isobutyramide]		
1.05	COc1cc(CC(O)CN2CCN(CC(=O)Nc3c(C)cccc3C)CC2)cc(OC)c1OC (stereo not shown) [Compound 24, N-(2,6-dimethylphenyl)-2-{4-[2-hydroxy-3-(3,4,5-trimethoxyphenyl)prophyl]piperazinyl}acetamide]	72	

More lines, now with the values behind:

SMILES	Liver S-9 stability factor [3]	Palmitoyl CoA oxidation activity (% of DMSO control) ([1]; 100 μM compound) [%]	other results
Cc1cccc(C)c1NC(=O)CN1CCN(CC(O)Cc2ccc3c(c2)OCO3)CC1 (stereo not shown) [Compound 7, 2-[4-(3-Benzo[1,3]dioxol-5-yl-2-hydroxy-propyl)-piperazin-1-yl]-N-(2,6-dimethyl-phenyl)-acetamide]	1.46		
Cc1cccc(C)c1NC(=O)CN1CCN(CC(O)CCc2ccccc2)CC1 (stereo not shown) [Compound 9, N-(2,6-dimethylphenyl)-2-[4-(2-hydroxy-4-phenylbutyl)piperazinyl]acetamide]	1.18	84	Palmitoyl CoA oxidation activity (% of DMSO control) ([1]; 30 μM compound): 84%
COc1ccccc1CC(O)CN1CCN(CC(=O)Nc2c(C)cccc2C)CC1 (stereo not shown) [Compound 10, N-(2,6-dimethylphenyl)-2-{4-[2-hydroxy-3(2-methoxyphenyl)-propyl]piperazinyl}acetamide]	1.03		
COc1ccc(CC(O)CN2CCN(CC(=O)Nc3c(C)cccc3C)CC2)cc1 (stereo not shown) [Compound 11, N-(2,6-dimethylphenyl)-2-{4-[2-hydroxy-3-(4-methoxyphenyl)propyl]piperazinyl}acetamide]	1.33	83	Palmitoyl CoA oxidation activity (% of DMSO control) ([1]; 30 μM compound): 92%
Cc1cccc(C)c1NC(=O)CN1CCN(CC(O)Cc2ccccc2)CC1 (stereo not shown) [Compound 12, N-(2,6-dimethylphenyl)-2-{4-[2-hydroxy-3-phenylpropyl]piperazinyl}acetamide]	1.38	42	Palmitoyl CoA oxidation activity (% of DMSO control) ([1]; 30 μM compound): 95%; Mitochondrial palmitoyl carnitine oxidation, % activity of DMSO control ([2]; 100 μM compound): 56%
Cc1cccc(C)c1NC(=O)CN1CCN(CC(O)Cc2cccc3ccccc23)CC1 (stereo not shown) [Compound 13, N-(2,6-dimethylphenyl)-2-[4-(2-hydroxy-3-naphthylpropyl)piperazinyl]acetamide]	0.10		
COc1ccc(CCC(O)CN2CCN(CC(=O)Nc3c(C)cccc3C)CC2)cc1 (stereo not shown) [Compound 16, N-(2,6-dimethylphenyl)-2-{4-[4-(4-methoxyphenyl)-2-hydroxybutyl]piperazinyl}acetamide]		37	
Cc1cccc(C)c1NC(=O)CN1CCN(CC(O)CCc2ccc(C(C)(C)C)cc2)CC1 (stereo not shown) [Compound 19, 2-(4-{4-[4-(tert-butyl)phenyl]-2-hydroxybutyl}piperazinyl)-N-(2,6-dimethylphenyl)acetamide]		35	
Cc1cccc(C)c1NC(=O)CN1CCN(CC(O)CCc2ccccc2F)CC1 (stereo not shown) [Compound 20, N-(2,6-dimethylphenyl)-2-{4-[4-(2-fluorophenyl)-2-hydroxybutyl]piperazinyl}acetamide]		56	
Cc1cccc(C)c1NC(=O)CN1CCN(CC(O)CCc2ccc(C(F)(F)F)cc2)CC1 (stereo not shown) [Compound 21, N-(2,6-dimethylphenyl)-2-(4-{2-hydroxy-4-[4-(trifluoromethyl)phenyl]butyl}piperazinyl)acetamide]		56	
